The source of these data is PubChem BioAssay (NCI).

Some test systems named below: OVCAR-8 ovarian; K-562 leukemia; COLO 205 colon; DU-145 prostate; NCI-H460 lung; MDA-MB-231 breast; SK-OV-3 ovarian; BT-549 breast; T-47D breast; NCI/ADR-RES ovarian; HCT-15 colon; MOLT-4 leukemia; UO-31 renal; KM12 colon; A549 NSCLC; SNB-75 CNS; 786-0 renal; HT29 colon; SF-539 CNS.
Assay in all cases: growth of human tumour cells (NCI), 48 h

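Values below derive from 48-hour exposures of cells grown in 96-well plates, with endpoints linearly interpolated between the two concentrations bracketing the appropriate inhibition level. TGI denotes the concentration required for complete inhibition of growth.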

`CCOC(=O)C(=O)N=Nc1c(O)[nH]c2ccccc12`: the TGI in the experiment with OVCAR-8 ovarian, in the experiment with K-562 leukemia, with COLO 205 colon, in the experiment on DU-145 prostate, with NCI-H460 lung and with MDA-MB-231 breast was above 100 µM in each case. Also, the TGI in the experiment on SK-OV-3 ovarian, in the experiment with BT-549 breast, in the experiment with T-47D breast, in the experiment with NCI/ADR-RES ovarian, in the experiment on HCT-15 colon and in the experiment with MOLT-4 leukemia was above 100 µM throughout. For the same molecule, the TGI with UO-31 renal, with KM12 colon, with A549 NSCLC, in the experiment with SNB-75 CNS and with 786-0 renal was above 100 µM each time.

Regarding `COc1cc(/C=C2\N=C(c3ccccc3)N(c3ccc4c(c3)Sc3cc(N5C(=O)/C(=C/c6cc(OC)c(OC)c(OC)c6)N=C5c5ccccc5)ccc3N4)C2=O)cc(OC)c1OC`, the TGI with OVCAR-8 ovarian was 37.9 µM; with HT29 colon, above 100 µM; in the experiment with K-562 leukemia, 48.4 µM; in the experiment on COLO 205 colon, 47.4 µM; in the experiment on DU-145 prostate, above 100 µM; in the experiment on NCI-H460 lung, above 100 µM. For the same molecule, the TGI with MDA-MB-231 breast was 67.8 µM; in the experiment on SK-OV-3 ovarian, 38.1 µM; in the experiment with BT-549 breast, 55.6 µM; with T-47D breast, 70.2 µM; with NCI/ADR-RES ovarian, above 100 µM; in the experiment on HCT-15 colon, above 100 µM. For the same molecule, the TGI in the experiment with MOLT-4 leukemia is above 100 µM; with UO-31 renal, above 100 µM; in the experiment on KM12 colon, above 100 µM; in the experiment on A549 NSCLC, above 100 µM; in the experiment with SNB-75 CNS it was 52.5 µM; with 786-0 renal, 40.9 µM.

For `COc1cc(S(=O)(=O)Nc2ccc(-c3csc(/N=C\c4ccccc4O)n3)cc2)ccc1Cl`, the TGI in the experiment on OVCAR-8 ovarian, with HT29 colon, in the experiment with K-562 leukemia, with COLO 205 colon, in the experiment on DU-145 prostate and with SF-539 CNS was above 100 µM in each case. For the same molecule, the TGI in the experiment on MDA-MB-231 breast was above 100 µM; with SK-OV-3 ovarian, above 100 µM; with BT-549 breast, above 100 µM; in the experiment with T-47D breast, 61.2 µM; in the experiment with NCI/ADR-RES ovarian, above 100 µM; in the experiment on HCT-15 colon, above 100 µM. The TGI in the experiment with MOLT-4 leukemia was 70.3 µM; in the experiment with UO-31 renal, above 100 µM; in the experiment on KM12 colon, above 100 µM; in the experiment on A549 NSCLC it was above 100 µM; in the experiment with SNB-75 CNS, above 100 µM; with 786-0 renal it was above 100 µM.

For `COc1ccc(/C=C2\N=C(N3CCOCC3)NC2=O)cc1`, the TGI in the experiment with OVCAR-8 ovarian, with HT29 colon, in the experiment on COLO 205 colon, in the experiment on DU-145 prostate, with SF-539 CNS and with MDA-MB-231 breast was above 100 µM each time. For the same molecule, the TGI in the experiment on SK-OV-3 ovarian, in the experiment on BT-549 breast, with T-47D breast, with NCI/ADR-RES ovarian, with HCT-15 colon and in the experiment on MOLT-4 leukemia was above 100 µM in each case. Besides, the TGI in the experiment with UO-31 renal, in the experiment with KM12 colon, with A549 NSCLC, in the experiment with SNB-75 CNS and in the experiment with 786-0 renal was above 100 µM in each case.

Turning to `N=C(N)SCCSC(=N)N`, the TGI with OVCAR-8 ovarian, with HT29 colon, in the experiment with K-562 leukemia, in the experiment on COLO 205 colon, in the experiment on DU-145 prostate and in the experiment on NCI-H460 lung was above 100 µM throughout. Further, the TGI in the experiment on MDA-MB-231 breast, in the experiment on SK-OV-3 ovarian, in the experiment with BT-549 breast, with T-47D breast, with NCI/ADR-RES ovarian and in the experiment on HCT-15 colon was above 100 µM in each case. The TGI in the experiment on MOLT-4 leukemia, in the experiment on UO-31 renal, in the experiment on KM12 colon, in the experiment on A549 NSCLC, with SNB-75 CNS and in the experiment with 786-0 renal was above 100 µM each time.

For `Cc1ccc(OC2CC(n3cnc4c(=O)[nH]c(Br)nc43)OC2Oc2ccc(C)cc2)cc1` (centres undefined), the TGI in the experiment with OVCAR-8 ovarian came to 66.5 µM; in the experiment with HT29 colon, 83.4 µM; with K-562 leukemia, 51.1 µM; with COLO 205 colon it was 82.8 µM; in the experiment with DU-145 prostate it was 53.9 µM; with NCI-H460 lung, 43.2 µM. Further, the TGI in the experiment with SF-539 CNS was 50.1 µM; in the experiment with MDA-MB-231 breast it was 46.9 µM; in the experiment on SK-OV-3 ovarian, above 100 µM; in the experiment on BT-549 breast, 67.5 µM; with T-47D breast, 62.1 µM; in the experiment with NCI/ADR-RES ovarian, 69.2 µM. Also, the TGI in the experiment with HCT-15 colon was 91.6 µM; with MOLT-4 leukemia, 50.5 µM; in the experiment with UO-31 renal it was 38.4 µM; in the experiment with KM12 colon, above 100 µM; with A549 NSCLC, 69.7 µM; in the experiment with 786-0 renal, 74.9 µM.

Turning to `COCN1C(=O)[C@@H]2CCCN2C(=O)c2ccc(Cl)cc21`, the TGI with OVCAR-8 ovarian, in the experiment on HT29 colon, with K-562 leukemia, in the experiment on COLO 205 colon, in the experiment on DU-145 prostate and in the experiment on NCI-H460 lung was above 100 µM in each case. Also, the TGI with MDA-MB-231 breast, in the experiment with SK-OV-3 ovarian, with BT-549 breast, in the experiment on T-47D breast, in the experiment on NCI/ADR-RES ovarian and in the experiment on HCT-15 colon was above 100 µM throughout. Further, the TGI in the experiment with MOLT-4 leukemia, in the experiment with UO-31 renal, in the experiment on KM12 colon, in the experiment with A549 NSCLC, in the experiment with SNB-75 CNS and in the experiment with 786-0 renal was above 100 µM each time.
